Reference: PMC6211260 (Journal of Enzyme Inhibition and Medicinal Chemistry, 2018)
Like-named read-outs stand apart in the source and are kept apart here.

Legend:
Type in all cases: cell-based
[1] = system: prostate cancer cell lines; experiment: NCI five-dose testing, subpanel mean; conditions: subpanel VIII: prostate cancer
Procedure: (§1) Screening against the cancer cell lines was carried out at the National Cancer Institute (NCI, Bethesda, Maryland, USA) applying the standard protocol of the NCI[22].

[2] = system: renal cancer cell lines; experiment: NCI five-dose testing, subpanel mean; conditions: subpanel VII: renal cancer
Procedure: as §1

[3] = system: breast cancer cell lines; experiment: NCI five-dose testing, subpanel mean; conditions: subpanel IX: breast cancer
Procedure: as §1

[4] = system: colon cancer cell lines; experiment: NCI five-dose testing, subpanel mean; conditions: subpanel III: colon cancer
Procedure: as §1

[5] = system: Leukaemia cell lines; experiment: NCI five-dose testing, subpanel mean; conditions: subpanel I: Leukaemia
Procedure: as §1

[6] = system: ovarian cancer cell lines; experiment: NCI five-dose testing, subpanel mean; conditions: subpanel VI: ovarian cancer
Procedure: as §1

[7] = system: melanoma cell lines; experiment: NCI five-dose testing, subpanel mean; conditions: subpanel V: melanoma
Procedure: as §1

[8] = system: CNS cancer cell lines; experiment: NCI five-dose testing, subpanel mean; conditions: subpanel IV: CNS cancer
Procedure: as §1

[9] = system: non-small cell lung cancer cell lines; experiment: NCI five-dose testing, subpanel mean; conditions: subpanel II: non-small cell lung cancer
Procedure: as §1

[10] = system: MDA-MB-468 breast cancer cell line; experiment: NCI five-dose testing; conditions: for IC50 / IC (TGI) / LD50 (lethal dose 50): MDA-MB-468; for CC50: MDA-MB-468, read-out: LD50 (lethal dose 50); for IC (TGI): read-out: TGI (total growth inhibition concentration)
Procedure: as §1

[11] = system: SK-MEL-5 melanoma cell line; experiment: NCI five-dose testing; conditions: for IC50 / IC (TGI) / LD50 (lethal dose 50): SK-MEL-5; for LC50 (lethal concentration 50): SK-MEL-5, read-out: LD50 (lethal dose 50); for IC (TGI): read-out: TGI (total growth inhibition concentration)
Procedure: as §1

[12] = system: A498 renal cancer cell line; experiment: NCI five-dose testing; conditions: for IC50 / IC (TGI) / LD50 (lethal dose 50): A498; for LC50 (lethal concentration 50%): A498, read-out: LD50 (lethal dose 50); for IC (TGI): read-out: TGI (total growth inhibition concentration)
Procedure: as §1

[13] = system: HOP-92 non-small cell lung cancer cell line; experiment: NCI five-dose testing; conditions: for IC (TGI): read-out: TGI (total growth inhibition concentration)
Procedure: as §1

[14] = system: U251 CNS cancer cell line; experiment: NCI five-dose testing; conditions: for CC50: U-251, read-out: LD50 (lethal dose 50); for IC50 / IC (TGI) / LD50 (lethal dose 50): U251; for IC50: read-out: IC50; for IC (TGI): read-out: TGI (total growth inhibition concentration)
Procedure: as §1

[15] = system: HT-29 colon cancer cell line; experiment: NCI five-dose testing; conditions: for CC50: HT-29, read-out: LD50 (lethal dose 50); for IC50 / IC (TGI) / LD50 (lethal dose 50): HT-29; for IC50: read-out: IC50; for IC (TGI): read-out: TGI (total growth inhibition concentration)
Procedure: as §1

[16] = system: PC-3 prostate cancer cell line; experiment: NCI five-dose testing; conditions: for LC50 (lethal concentration 50): PC-3, read-out: LD50 (lethal dose 50); for IC50 / IC (TGI) / LD50 (lethal dose 50): PC-3; for IC50: read-out: IC50; for IC (TGI): read-out: TGI (total growth inhibition concentration)
Procedure: as §1

[17] = system: K-562 leukaemia cell line; experiment: NCI five-dose testing; conditions: for CC50: K562, read-out: LD50 (lethal dose 50); for IC50 / IC (TGI) / LD50 (lethal dose 50): K-562; for IC (TGI): read-out: TGI (total growth inhibition concentration)
Procedure: as §1

[18] = system: OVCAR-4 ovarian cancer cell line; experiment: NCI five-dose testing; conditions: for IC50 / IC (TGI) / LD50 (lethal dose 50): OVCAR-4; for LC50 (lethal concentration 50): OVCAR-4, read-out: LD50 (lethal dose 50); for IC (TGI): read-out: TGI (total growth inhibition concentration)
Procedure: as §1

[19] = Homo sapiens, HOP-92, read-out: LD50 (lethal dose 50)

Molecule `O=S(=O)(NCCNc1cc(-c2cn(-c3ccccc3)nc2-c2cccc(O)c2)ccn1)c1ccc(C(F)(F)F)cc1` [Compound 1o, N-(2-((4-(3-(3-Hydroxyphenyl)-1-phenyl-1H-pyrazol-4-yl)pyridin-2-yl)amino)ethyl)-4-(trifluoromethyl)benzenesulfonamide] has an IC50 [1] of 3.45 µM, an IC50 [2] of 2.45 µM and an IC50 [3] of 2.11 µM. The IC50 [4] was 2.38 µM, the IC50 [5] was 2.34 µM and the IC50 [6] was 3.12 µM. It also gave an IC50 [7] of 2.37 µM, an IC50 [8] of 2.67 µM and an IC50 [9] of 3.03 µM. It also gave an IC50 ([10]; Homo sapiens) of 2.05 µM, a CC50 ([10]; Homo sapiens) of over 100 µM and an IC (TGI) ([10]; Homo sapiens) of 5.02 µM. The IC50 ([11]; Homo sapiens) was 1.78 µM, the LC50 (lethal concentration 50) ([11]; Homo sapiens) was 6.3 µM and the IC (TGI) ([11]; Homo sapiens) was 3.3 µM. For the same molecule, the IC50 ([12]; Homo sapiens) was 1.71 µM, the LC50 (lethal concentration 50%) ([12]; Homo sapiens) was 41.4 µM and the IC (TGI) ([12]; Homo sapiens) was 14.5 µM. For the same molecule, the IC50 ([13]; Homo sapiens, HOP-92) was 1.97 µM, the IC (TGI) ([13]; Homo sapiens, HOP-92, HOP-92) was 6.2 µM and the LD50 (lethal dose 50) [13, 19] was 52 µM. For the same molecule, the CC50 ([14]; Homo sapiens) was 44.1 µM, the IC50 ([14]; Homo sapiens, U-251) was 2.65 µM and the IC (TGI) ([14]; Homo sapiens, U-251) was 7.2 µM. For the same molecule, the CC50 ([15]; Homo sapiens) was 35.1 µM, the IC50 ([15]; Homo sapiens) was 2.04 µM and the IC (TGI) ([15]; Homo sapiens) was 5.4 µM. It also gave an LC50 (lethal concentration 50) ([16]; Homo sapiens) of 93.4 µM, an IC50 ([16]; Homo sapiens) of 2.47 µM and an IC (TGI) ([16]; Homo sapiens) of 10.9 µM. For the same molecule, the CC50 ([17]; Homo sapiens) was over 100 µM, the IC50 ([17]; Homo sapiens, K562) was 2.48 µM and the IC (TGI) ([17]; Homo sapiens, K562) was 6.5 µM. It also gave an IC50 ([18]; Homo sapiens) of 2.85 µM, an LC50 (lethal concentration 50) ([18]; Homo sapiens) of 81.2 µM and an IC (TGI) ([18]; Homo sapiens) of 16.9 µM.
Molecule `O=S(=O)(NCCNc1cc(-c2cn(-c3ccccc3)nc2-c2cccc(O)c2)ccn1)c1ccc(Br)cc1` [Compound 1k, 4-Bromo-N-(2-((4-(3-(3-hydroxyphenyl)-1-phenyl-1H-pyrazol-4-yl)pyridin-2-yl)amino)ethyl) benzenesulfonamide] has an IC50 [1] of 2.54 µM, an IC50 [2] of 2.48 µM and an IC50 [3] of 2.34 µM. It also gave an IC50 [4] of 2.29 µM, an IC50 [5] of 2.11 µM and an IC50 [6] of 2.87 µM. It also gave an IC50 [7] of 2.03 µM, an IC50 [8] of 2.18 µM and an IC50 [9] of 2.69 µM. For the same molecule, the IC50 [10] was 2.7 µM, the “LD50 (lethal dose 50)” value [10] was over 100 µM and the IC (TGI) [10] was 7.7 µM. The IC50 [11] was 1.64 µM, the “LD50 (lethal dose 50)” value [11] was 5.6 µM and the IC (TGI) [11] was 3.0 µM. For the same molecule, the IC50 [12] was 3.33 µM, the “LD50 (lethal dose 50)” value [12] was 34.3 µM and the IC (TGI) [12] was 5.4 µM. For the same molecule, the IC50 ([13]; HOP-92) was 2 µM, the “LD50 (lethal dose 50)” value ([13]; HOP-92) was 34.6 µM and the IC (TGI) ([13]; HOP-92) was 5.0 µM. For the same molecule, the “LD50 (lethal dose 50)” value [14] was 25.6 µM, the IC50 [14] was 2.21 µM and the IC (TGI) [14] was 5.6 µM. For the same molecule, the “LD50 (lethal dose 50)” value [15] was 17.3 µM, the IC50 [15] was 2.17 µM and the IC (TGI) [15] was 5.0 µM. The “LD50 (lethal dose 50)” value [16] was over 100 µM, the IC50 [16] was 2.07 µM and the IC (TGI) [16] was 6.4 µM. The IC50 [17] was 1.98 µM, the “LD50 (lethal dose 50)” value [17] was over 100 µM and the IC (TGI) [17] was 5.4 µM. For the same molecule, the IC50 [18] was 2.32 µM, the “LD50 (lethal dose 50)” value [18] was over 100 µM and the IC (TGI) [18] was 13.7 µM.
For `O=S(=O)(NCCCNc1cc(-c2cn(-c3ccccc3)nc2-c2cccc(O)c2)ccn1)c1ccc(F)cc1` [Compound 2m, 4-Fluoro-N-(3-((4-(3-(3-hydroxyphenyl)-1-phenyl-1H-pyrazol-4-yl)pyridin-2-yl)amino)propyl)benzenesulfonamide], the IC50 [1] was 3.62 µM, the IC50 [2] was 3.81 µM and the IC50 [3] was 2.69 µM. The IC50 [4] was 2.68 µM, the IC50 [5] was 2.25 µM and the IC50 [6] was 3.79 µM. For the same molecule, the IC50 [7] was 2.89 µM, the IC50 [8] was 3.28 µM and the IC50 [9] was 3.91 µM. For the same molecule, the IC50 ([10]; Homo sapiens) was 2.55 µM, the CC50 ([10]; Homo sapiens) was over 100 µM and the IC (TGI) ([10]; Homo sapiens) was 6.7 µM. For the same molecule, the IC50 ([11]; Homo sapiens) was 3.06 µM, the LC50 (lethal concentration 50) ([11]; Homo sapiens) was 33 µM and the IC (TGI) ([11]; Homo sapiens) was 10.1 µM. For the same molecule, the IC50 ([12]; Homo sapiens) was 3.52 µM, the LC50 (lethal concentration 50%) ([12]; Homo sapiens) was 52.3 µM and the IC (TGI) ([12]; Homo sapiens) was 9.8 µM. It also gave an IC50 ([13]; Homo sapiens, HOP-92) of 2.66 µM, an IC (TGI) ([13]; Homo sapiens, HOP-92, HOP-92) of 7.6 µM and an LD50 (lethal dose 50) [13, 19] of 84.2 µM. It also gave a CC50 ([14]; Homo sapiens) of 69.5 µM, an IC50 ([14]; Homo sapiens, U-251) of 2.97 µM and an IC (TGI) ([14]; Homo sapiens, U-251) of 10.3 µM. For the same molecule, the CC50 ([15]; Homo sapiens) was 47.8 µM, the IC50 ([15]; Homo sapiens) was 2.26 µM and the IC (TGI) ([15]; Homo sapiens) was 6.4 µM. The LC50 (lethal concentration 50) ([16]; Homo sapiens) was 80.7 µM, the IC50 ([16]; Homo sapiens) was 3.11 µM and the IC (TGI) ([16]; Homo sapiens) was 8.5 µM. For the same molecule, the CC50 ([17]; Homo sapiens) was over 100 µM, the IC50 ([17]; Homo sapiens, K562) was 2.4 µM and the IC (TGI) ([17]; Homo sapiens, K562) was 6.3 µM. For the same molecule, the IC50 ([18]; Homo sapiens) was 3.82 µM, the LC50 (lethal concentration 50) ([18]; Homo sapiens) was over 100 µM and the IC (TGI) ([18]; Homo sapiens) was 4.8 µM.
Work on `O=S(=O)(NCCNc1cc(-c2cn(-c3ccccc3)nc2-c2cccc(O)c2)ccn1)c1ccc(F)cc1` [Compound 1m, 4-Fluoro-N-(2-((4-(3-(3-hydroxyphenyl)-1-phenyl-1H-pyrazol-4-yl)pyridin-2-yl)amino)ethyl) benzenesulfonamide] yielded an IC50 [1] of 2.88 µM, an IC50 [2] of 2.88 µM and an IC50 [3] of 2.16 µM. For the same molecule, the IC50 [4] was 2.34 µM, the IC50 [5] was 2.29 µM and the IC50 [6] was 2.68 µM. The IC50 [7] was 2.06 µM, the IC50 [8] was 2.51 µM and the IC50 [9] was 2.65 µM. For the same molecule, the IC50 [10] was 1.88 µM, the “LD50 (lethal dose 50)” value [10] was over 100 µM and the IC (TGI) [10] was 5.3 µM. For the same molecule, the IC50 [11] was 1.73 µM, the “LD50 (lethal dose 50)” value [11] was 6.0 µM and the IC (TGI) [11] was 3.2 µM. The IC50 [12] was 2.32 µM, the “LD50 (lethal dose 50)” value [12] was 45.7 µM and the IC (TGI) [12] was 9.2 µM. The IC50 ([13]; HOP-92) was 2.03 µM, the “LD50 (lethal dose 50)” value ([13]; HOP-92) was 68.8 µM and the IC (TGI) ([13]; HOP-92) was 8.4 µM. The “LD50 (lethal dose 50)” value [14] was 50.9 µM, the IC50 [14] was 2.62 µM and the IC (TGI) [14] was 6.8 µM. The “LD50 (lethal dose 50)” value [15] was 54.3 µM, the IC50 [15] was 1.99 µM and the IC (TGI) [15] was 47.9 µM. The “LD50 (lethal dose 50)” value [16] was over 100 µM, the IC50 [16] was 2.29 µM and the IC (TGI) [16] was 10.2 µM. For the same molecule, the IC50 [17] was 1.98 µM, the “LD50 (lethal dose 50)” value [17] was over 100 µM and the IC (TGI) [17] was over 100 µM. For the same molecule, the IC50 [18] was 3.05 µM, the “LD50 (lethal dose 50)” value [18] was over 100 µM and the IC (TGI) [18] was over 100 µM.
